Reference: PubChem BioAssay (NCI)
Where “and” joins values, the source holds several entries; their conditions need not be identical. Equal values may be shown once.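 48-hour exposure; five concentrations; linearly interpolated endpoints. GI50 = concentration required for 50% inhibition of growth. TGI: concentration producing complete growth inhibition.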

Assays:
Assay in all cases: NCI anticancer screen, dose series, 48 h
[1] = tested on: A498 renal
[2] = tested on: HL-60(TB) leukemia
[3] = tested on: KM12 colon
[4] = tested on: NCI-H23 lung
[5] = tested on: NCI-H522 lung
[6] = tested on: NCI/ADR-RES ovarian
[7] = tested on: OVCAR-3 ovarian
[8] = tested on: SF-539 CNS
[9] = tested on: UACC-62 melanoma
[10] = tested on: UO-31 renal

| Compound | GI50 [1] [µM] | TGI [1] [µM] | GI50 [2] [µM] | TGI [2] [µM] | GI50 [3] [µM] | TGI [3] [µM] | GI50 [4] [µM] | TGI [4] [µM] | GI50 [5] [µM] | TGI [5] | GI50 [6] [µM] | TGI [6] | GI50 [7] [µM] | TGI [7] [µM] | GI50 [8] [µM] | TGI [8] | GI50 [9] [µM] | TGI [9] | GI50 [10] [µM] | TGI [10] [µM] |
| --- | --- | --- | --- | --- | --- | --- | --- | --- | --- | --- | --- | --- | --- | --- | --- | --- | --- | --- | --- | --- |
| CCOC(=O)[C@@H](N)CCC(=O)N[C@@H](CSCc1ccccc1)C(=O)N[C@@H](C(=O)OCC)c1ccccc1 | 17.2 | 38.8 | 18.5 | 39.5 | 18.1 | 33.8 | 18.8 | 40.9 | 16.2 | 32.4 µM | > 100 | > 100 µM | 16.7 | 30.7 | 17.6 | 33.8 µM | 17.1 | 33 µM | 34.5 | > 59.5 |
| CN(C)C(=O)c1cc2cnc(Nc3ccc(-c4csc5c(=S)cc(N6CCOCC6)oc45)cc3)nc2n1C1CCCC1 | 0.103 | 1.12 | 0.264 | 1.97 | 0.18 | > 50 | 0.699 | > 19.5 | 1.3 | > 50 µM | 1.02 | > 50 µM | 0.91 | > 50 | 0.517 | 2.03 µM | 0.234 | 1.72 µM | 0.227 | 1.54 |
| OC[C@H]1CCCC1O (stereo partly drawn) | – | > 100 | – | > 100 | – | > 100 | – | > 100 | – | > 100 µM | – | > 100 µM | – | > 100 | – | > 100 µM | – | > 100 µM | – | > 100 |
| CCCCCCCC/C=C/CCCCCCCC(=O)OC[C@H]1O[C@@H](n2ccc(N)nc2=O)C(F)(F)[C@@H]1O | < 0.0218 | 6.32 | 0.0217 | 28 | > 100 | > 100 | < 0.0143 | 21.1 | 0.201 | > 100 µM | < 0.0217 | > 100 µM | 8.86 | > 100 | < 0.0183 | 1.17 µM | 0.0331 | > 100 µM | < 0.0136 | 0.125 |
| NP(=O)(Oc1c2occc2cc2ccc(=O)oc12)N(CCCl)CCCl (stereo not drawn) | – | > 100 | – | > 100 | – | > 100 | – | > 100 | – | > 100 µM | – | > 100 µM | – | > 100 | – | > 100 µM | – | > 100 µM | – | > 100 |
| Oc1ccccc1C(Sc1nc2ccccc2s1)Sc1nc2ccccc2s1 | – | > 100 | – | > 100 | – | > 100 | – | > 100 | – | 56.8 µM | – | > 100 µM | – | > 100 | – | – | – | > 100 µM | – | > 100 |
| COc1nc2ccccc2cc1-c1nc2c(cnn2-c2ccc(Br)cc2)c(=O)[nH]1 | 0.0139 | 0.521 | 0.0158 | 0.0815 | 0.0226 | > 50 | 0.0825 | 10.9 | 0.0153 | – | 0.0186 | 1.58 µM | 0.0171 | 0.219 | 0.0194 | 1.63 µM | 0.0234 | > 50 µM | 0.0603 | > 50 |
| COc1cc2c(c(OC)c1OC)-c1ccc(OC)c(=O)cc1[C@@H](NC(=O)c1ccccc1)CC2 | < 0.003 | – | – | < 0.013 | – | 1.14 | – | 2.32 | 0.00357 | 0.0125 µM and 0.0205 µM | – | 1.15 µM and 1.05 µM | < 0.003 | – | < 0.003 | < 0.003 µM and 0.017 µM | < 0.003 | 30 µM and 59.7 µM | > 30 | > 100 |
| N=C1C(c2nc3ccccc3s2)=C(O)CN1c1cc(C(F)(F)F)ccc1Cl | 24.6 | 97.9 | 5.75 | 30.2 | 20.5 | > 100 | 26.3 | > 100 | 9.49 | > 100 µM | 7.45 | 37.6 µM | 4.47 | 40.4 | 10 | 52.9 µM | 5.06 | 42.7 µM | 2.63 | 6.18 |
| N#CC(NNC(=O)Cc1ccccc1)c1c(O)ccc2ccccc12 (stereo not drawn) | – | > 72.5 | – | > 46 | – | > 72.4 | – | 37.8 | – | 34 µM | – | 16 µM | – | 26.5 | – | 29 µM | – | 12 µM | – | 11.2 |
| CC(C)(C)c1cc(C(C)(C)C)cc(S(=O)(=O)Nc2cc3ccccc3cc2C(=O)NCCN)c1 | 1.77 | 3.3 | 2.04 | 4.22 | 1.79 | 3.37 | 1.76 | 3.53 | 1.8 | 3.72 µM | 2.37 | 6.54 µM | 1.75 | 3.21 | 1.77 | 3.28 µM | 1.82 | 3.4 µM | 1.55 | 2.98 |
| CN1C/C=C\CCOc2cccc(c2)-c2ccnc(n2)Nc2cccc(c2)C1 | 0.0572 | 0.156 | 0.0232 | 0.103 | 0.0377 | 0.506 | 0.0717 | 0.599 | 0.0708 | 0.334 µM | 0.0654 | 1.45 µM | 0.0419 | 0.769 | 0.0508 | 0.227 µM | 0.0259 | 0.148 µM | 0.0324 | 0.46 |
| O=C1OC(C(O)CO)C(=O)C1=O (stereo not drawn) | 2520 | 8510 | – | – | 3500 | > 10000 | 4680 | > 10000 | 1850 | 3460 µM | 7060 | > 10000 µM | – | – | 2490 | 5440 µM | 4330 | > 10000 µM | 1850 | 4600 |
| NS(=O)(=O)c1ccc(NC2(C(=O)O)CCCC2)cc1 | – | > 100 | – | > 100 | – | > 100 | – | > 100 | – | > 100 µM | – | > 100 µM | – | > 100 | – | > 100 µM | – | > 100 µM | – | > 100 |
| COc1cc2ncnc(Nc3ccc(C)c(O)c3)c2cc1OC | 5.56 | 18 | > 25 | > 25 | > 25 | > 25 | > 25 | > 25 | 2.83 | > 18.6 µM | 16.4 | > 25 µM | 8.94 | > 25 | 5.98 | > 23 µM | > 25 | > 25 µM | 1.59 | > 17.2 |
